{"source": "patent US20100304418A1", "about": "“Compositions and Methods for Monitoring Flow Through Fluid Conducting and Containment Systems” (priority 2007, published 2010)", "key": {"[1]": {"assay": "Thermal stability of galactose and derivatives", "settings": "20 h", "experimental": "The thermal stability of both galactose and octy-galactose was investigated. Galactose and octyl-galacotse solutions (50 ppm, 30 mL) were prepared in both deionised water and formation water. These solutions were divided and the pH of one water sample and one formation water sample was adjusted to 2 with HCl. 4.5 mL of each solution was placed in a duran bottle with Teflon tape wrapped around the threads to prevent evaporation. The eight samples were heated at 100 or 120° C. for 20 h. The remaining solutions were kept at 4° C. inbetween experiments. Each of the samples was diluted 10-fold before analysis."}, "galactose oxidase [2]": {"biological_target": "T1, galactose oxidase (Gibberella zeae, UniProt P0CS93)", "T1 sequence (P0CS93 42-680 limits assumed)": "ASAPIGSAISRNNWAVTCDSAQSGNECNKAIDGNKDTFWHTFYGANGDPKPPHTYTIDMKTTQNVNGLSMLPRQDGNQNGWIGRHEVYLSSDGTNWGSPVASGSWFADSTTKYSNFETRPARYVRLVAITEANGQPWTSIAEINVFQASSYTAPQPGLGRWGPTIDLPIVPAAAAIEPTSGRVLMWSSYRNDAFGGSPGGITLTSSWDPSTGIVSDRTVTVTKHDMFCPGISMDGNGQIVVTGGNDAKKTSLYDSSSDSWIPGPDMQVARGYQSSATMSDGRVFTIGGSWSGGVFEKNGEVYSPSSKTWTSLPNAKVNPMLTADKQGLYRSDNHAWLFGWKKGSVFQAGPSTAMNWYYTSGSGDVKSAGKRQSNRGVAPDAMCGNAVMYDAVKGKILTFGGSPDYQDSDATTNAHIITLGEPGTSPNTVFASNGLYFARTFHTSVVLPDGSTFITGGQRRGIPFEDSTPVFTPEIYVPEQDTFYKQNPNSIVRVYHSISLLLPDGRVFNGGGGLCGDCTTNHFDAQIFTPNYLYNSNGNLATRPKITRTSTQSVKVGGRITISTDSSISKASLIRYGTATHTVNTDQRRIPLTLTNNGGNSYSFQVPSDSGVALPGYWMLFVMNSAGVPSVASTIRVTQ"}, "xanthine oxidase": {"biological_target": "T2, xanthine oxidase (Bos taurus, UniProt P80457)", "T2 construct": "purchased", "T2 sequence (P80457 whole entry)": "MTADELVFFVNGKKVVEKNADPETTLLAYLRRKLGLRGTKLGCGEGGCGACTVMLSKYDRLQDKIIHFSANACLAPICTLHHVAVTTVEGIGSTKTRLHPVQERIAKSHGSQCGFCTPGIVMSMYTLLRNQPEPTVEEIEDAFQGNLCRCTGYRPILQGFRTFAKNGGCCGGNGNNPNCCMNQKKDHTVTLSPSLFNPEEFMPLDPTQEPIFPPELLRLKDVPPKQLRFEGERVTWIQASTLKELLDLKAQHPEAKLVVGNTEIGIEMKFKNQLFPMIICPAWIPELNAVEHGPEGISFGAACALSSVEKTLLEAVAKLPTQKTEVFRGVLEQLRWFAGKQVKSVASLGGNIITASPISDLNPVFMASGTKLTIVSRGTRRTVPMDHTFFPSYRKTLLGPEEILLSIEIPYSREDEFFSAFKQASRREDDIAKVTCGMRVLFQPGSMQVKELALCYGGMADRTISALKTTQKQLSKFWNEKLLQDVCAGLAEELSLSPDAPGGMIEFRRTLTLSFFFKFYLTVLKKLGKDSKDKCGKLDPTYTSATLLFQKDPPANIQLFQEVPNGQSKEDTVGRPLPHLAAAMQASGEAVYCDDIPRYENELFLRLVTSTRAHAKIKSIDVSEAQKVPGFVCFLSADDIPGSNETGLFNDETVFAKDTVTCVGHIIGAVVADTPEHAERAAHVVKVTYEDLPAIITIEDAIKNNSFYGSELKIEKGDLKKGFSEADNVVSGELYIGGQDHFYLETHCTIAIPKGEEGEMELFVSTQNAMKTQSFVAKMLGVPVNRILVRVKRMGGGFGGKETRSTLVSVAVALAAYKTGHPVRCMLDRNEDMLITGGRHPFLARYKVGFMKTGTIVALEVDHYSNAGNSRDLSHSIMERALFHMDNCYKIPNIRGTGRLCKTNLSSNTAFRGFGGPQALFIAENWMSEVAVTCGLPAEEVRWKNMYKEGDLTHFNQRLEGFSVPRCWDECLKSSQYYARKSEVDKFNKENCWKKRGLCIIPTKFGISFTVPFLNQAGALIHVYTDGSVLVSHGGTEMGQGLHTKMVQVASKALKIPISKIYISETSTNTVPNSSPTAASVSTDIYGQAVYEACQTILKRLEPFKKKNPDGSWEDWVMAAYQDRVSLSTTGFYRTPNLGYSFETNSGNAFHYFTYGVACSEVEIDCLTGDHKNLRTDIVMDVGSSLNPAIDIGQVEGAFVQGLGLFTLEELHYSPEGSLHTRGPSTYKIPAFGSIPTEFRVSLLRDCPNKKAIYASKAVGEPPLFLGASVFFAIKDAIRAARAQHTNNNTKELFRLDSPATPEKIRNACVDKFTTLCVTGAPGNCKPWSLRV", "assay": "Limit of detection of xanthine and hypoxanthine, xanthine oxidase / Amplex Red assay", "text": "This assay uses xanthine oxidase to catalyze the oxidation of hypoxanthine or xanthine, to uric acid and superoxide. The superoxide spontaneously degrades to hydrogen peroxide (H2O2), which reacts stoichiometrically with Amplex® Red in the presence of horseradishperoxidase (HRP). A fluorescent product, resorufin, is generated which can be detected fluorometrically or spectrophotometrically."}, "[3]": {"assay": "Thermostability of xanthine and hypoxanthine", "settings": "room temperature and 120° C., 20 h, acidic and neutral pH", "experimental": "These solutions were divided and the pH of one sample of each compound was adjusted to 2 with HCl. 4.5 mL of each solution was placed in a duran bottle with Teflon tape wrapped around the threads to prevent evaporation. The samples were heated at 120° C. for 20 h. The remaining solutions were kept at 25° C. Each of the samples was diluted 10-fold to 7.5 ppm before analysis."}, "galactose oxidase [4]": {"biological_target": "T1, galactose oxidase", "format": "biochemical"}, "seawater bacteria": {"test_system": "seawater bacteria", "settings": "28 day seawater test"}, "[5]": {"assay": "Biodegradation, 28 day seawater test, OECD 306", "settings": "over 28 days"}, "[6]": {"assay": "Heat treatment of GFP solution with added biotin", "settings": "100° C. for 1 hour in GFP solution", "experimental": "The sample has high fluorescence from the GFP. This solution was treated in 2 ways (a) no treatment (b) heat treated (samples were heated to 100° C. for 1 hour in an oven)."}}}
{"smiles": "O=C[C@H](O)[C@@H](O)[C@@H](O)[C@H](O)CO", "note": "[galactose]", "values": [{"measurement": "thermal stability", "setting": "[1]; above 100° C. (120° C.)", "value": "a drop in concentration is observed"}, {"measurement": "thermal stability", "setting": "[1]; to 100° C., water and formation water, pH 6-7 and pH 2", "value": "sufficiently stable"}, {"measurement": "detectable concentration range", "setting": "galactose oxidase [2]", "value": "0-30 ppm"}, {"measurement": "limit of detection", "setting": "galactose oxidase [2]", "value": "ca. 0.3 ppm"}]}
{"smiles": "O=c1[nH]c(=O)c2[nH]cnc2[nH]1", "note": "[xanthine]", "values": [{"measurement": "limit of detection", "setting": "xanthine oxidase", "value": "less than 0.16 ppm"}]}
{"smiles": "O=c1[nH]cnc2nc[nH]c12", "note": "[hypoxanthine]", "values": [{"measurement": "thermal stability", "setting": "[3]", "value": "stable"}, {"measurement": "limit of detection", "setting": "xanthine oxidase", "value": "> 0.02", "unit": "ppm"}]}
{"smiles": "O=C(CO)[C@@H](O)[C@H](O)[C@H](O)CO", "note": "[fructose]", "values": [{"measurement": "oxidation by galactose oxidase / interference with galactose assay", "setting": "galactose oxidase [4]", "value": "can be oxidized by galactose oxidase"}]}
{"smiles": "O=C(O)CCCC[C@@H]1SC[C@@H]2NC(=O)N[C@@H]21", "note": "[biotin]", "values": [{"measurement": "drop in fluorescence after heat and pressure", "setting": "250 nM in synthetic formation water, 150° C., 3 kbar, 15 minutes", "value": "no obvious drop in fluorescence"}, {"measurement": "loss of fluorescence due to temperature and pressure", "setting": "dilution series, increasing temperatures up to 150° C., 4 kbar, aqueous phase of produced fluids", "value": "No loss of fluorescence"}, {"measurement": "inhibition to seawater bacteria", "setting": "seawater bacteria", "value": 42, "unit": "%"}, {"measurement": "degradation", "setting": "[5]", "value": 14, "unit": "%"}, {"measurement": "effect of heat treatment on biotin detection", "setting": "[6]", "value": "unaffected"}]}
